According to US8147818B2, “Hepatitis C virus inhibitors” (Bristol-Myers Squibb Company, priority 2008, dated 2012):

The molecules below were run on HCV 1b-377-neo replicon cells (assay: HCV Replicon assay, HCV 1b-377-neo replicon cells). Conditions: Hepatitis C virus, read-out: EC50 against HCV 1b (Activity or Range).
Format: cell-based, HCV 1b genotype
Description: An HCV Replicon assay was utilized in the present disclosure, and was prepared, conducted and validated as described in commonly owned PCT/US2006/022197 and in O'Boyle et. al. Antimicrob Agents Chemother. 2005 April; 49(4):1346-53.
HCV 1b-377-neo replicon cells were used to test the currently described compound series as well as cells resistant to compound A containing a Y2065H mutation in NS5A (described in application PCT/US2006/022197). The compounds tested were determined to have more than 10-fold less inhibitory activity on cells containing the mutation than wild-type cells indicating a related mechanism of action between the two compound series. Thus, the compounds of the present disclosure can be effective to inhibit the function of the HCV NS5A protein and are understood to be as effective in combinations as previously described in application PCT/US2006/022197 and commonly owned WO/O4014852. Further, the compounds of the present disclosure can be effective against the HCV 1b genotype. It should also be understood that the compounds of the present disclosure can inhibit multiple genotypes of HCV. […] In one embodiment compounds of the present disclosure are active against the 1a, 1b, 2a, 2b, 3a, 4a, and 5a genotypes.
Molecule `COC(=O)N[C@H](C(=O)N1CCC[C@H]1c1ncc(-c2ccc(-c3ccc4c(c3)CCCc3[nH]c([C@@H]5CCCN5C(=O)[C@@H](NC(=O)OC)C(C)C)nc3-4)cc2)[nH]1)C(C)C` [Example 22] has an EC50 of 0.005 nM. Molecule `CCN(CC)[C@@H](C(=O)N1CCC[C@H]1c1nc2c([nH]1)CCCc1cc(-c3ccc(-c4[nH]c([C@@H]5CCCN5C(=O)[C@@H](c5ccccc5)N(CC)CC)nc4CC(F)(F)F)cc3)ccc1-2)c1ccccc1` [Example 22a.3] has an EC50 of 0.01 nM. Molecule `COC(=O)N[C@H](C(=O)N(C)[C@@H](C)c1ncc(-c2ccc(-c3ccc4c(c3)CCCc3[nH]c([C@@H]5CCCN5C(=O)[C@@H](NC(=O)OC)C(C)C)nc3-4)cc2)[nH]1)C(C)C` [Example 22e] has an EC50 of 0.003 nM. In the case of `COC(=O)N[C@@H](C)C(=O)N1CCC[C@H]1c1ncc(-c2ccc(-c3ccc4c(c3)CCCc3[nH]c([C@@H]5CCCN5C(=O)[C@H](C)NC(=O)OC)nc3-4)cc2F)[nH]1` [Example 22g.2], the EC50 is reported as 0.02 nM. For `COC(=O)N[C@H](C(=O)N1CCC[C@H]1c1ncc(-c2ccc(-c3ccc4c(c3)CCCc3[nH]c([C@@H]5CCCN5C(=O)[C@@H](NC(=O)OC)C(C)C)nc3-4)cc2F)[nH]1)C(C)C` [Example 22g], the EC50 was 0.001 nM. `COC(=O)N[C@H](C(=O)N1CCC[C@H]1c1ncc(-c2cccc(-c3ccc4c(c3)-c3nc([C@@H]5CCCN5C(=O)[C@@H](NC(=O)OC)C(C)C)[nH]c3CCC4)c2)[nH]1)C(C)C` [Example 22j] was tested, and the EC50 was 14 nM. Molecule `COC(=O)N[C@H](C(=O)N1CCC[C@H]1c1ncc(-c2ccc(-c3ccc4c(c3)Cc3nc([C@@H]5CCCN5C(=O)[C@@H](NC(=O)OC)C(C)C)[nH]c3CC4)cc2)[nH]1)C(C)C` [Example 22p] has an EC50 of 0.16 nM.

Same assay, conditions: Hepatitis C virus, read-out: EC50 against HCV 1b (Activity or Range), range class
Molecule `CCN(CC)[C@@H](C(=O)N1CCC[C@H]1c1ncc(-c2ccc(-c3ccc4c(c3)CCCc3[nH]c([C@@H]5CCCN5C(=O)[C@@H](c5ccccc5)N(CC)CC)nc3-4)cc2)[nH]1)c1ccccc1` [Example 22.1] has an EC50 of 0.001 to 0.1 nM. `COC(=O)N[C@@H](C)C(=O)N1CCC[C@H]1c1ncc(-c2ccc(-c3ccc4c(c3)CCCc3[nH]c([C@@H]5CCCN5C(=O)[C@H](C)NC(=O)OC)nc3-4)cc2)[nH]1` [Example 22.2] gave an EC50 of 0.001 to 0.1 nM. `COC(=O)N[C@@H](C(=O)N1CCC[C@H]1c1ncc(-c2ccc(-c3ccc4c(c3)CCCc3[nH]c([C@@H]5CCCN5C(=O)[C@H](NC(=O)OC)c5ccccc5)nc3-4)cc2)[nH]1)c1ccccc1` [Example 22.3] gave an EC50 of 0.001 to 0.1 nM. `COC(=O)N[C@@H](C(=O)N1CCC[C@H]1c1ncc(-c2ccc(-c3ccc4c(c3)OCCc3[nH]c([C@@H]5CCCN5C(=O)[C@H](NC(=O)OC)c5ccccc5)nc3-4)cc2)[nH]1)c1ccccc1` [Example 22a.1] gave an EC50 of 0.001 to 0.1 nM. For `COC(=O)N[C@H](C(=O)N1CCC[C@H]1c1nc2c([nH]1)CCCc1cc(-c3ccc(-c4[nH]c([C@@H]5CCCN5C(=O)[C@@H](NC(=O)OC)C(C)C)nc4CC(F)(F)F)cc3)ccc1-2)C(C)C` [Example 22a.2], the EC50 was 0.001 to 0.1 nM. For `COC(=O)N[C@H](C(=O)N1CCC[C@H]1c1nc2c([nH]1)CCCc1cc(-c3ccc(-c4[nH]c([C@@H]5CCCN5C(=O)[C@@H](NC(=O)OC)C(C)C)nc4CCC(F)(F)F)cc3)ccc1-2)C(C)C` [Example 22a.4], the EC50 was 0.001 to 0.1 nM. `CCN(CC)[C@@H](C(=O)N(C)[C@@H](C)c1nc2c([nH]1)CCCc1cc(-c3ccc(-c4cnc([C@@H]5CCCN5C(=O)[C@@H](c5ccccc5)N(CC)CC)[nH]4)cc3)ccc1-2)c1ccccc1` [Example 22b.1] gave an EC50 of 0.001 to 0.1 nM. `COC(=O)N[C@H](C(=O)N(C)[C@@H](C)c1nc2c([nH]1)CCOc1cc(-c3ccc(-c4cnc([C@@H]5CCCN5C(=O)[C@@H](NC(=O)OC)C(C)C)[nH]4)cc3)ccc1-2)C(C)C` [Example 22b.2] was tested, and the EC50 was 0.001 to 0.1 nM. `COC(=O)N[C@@H](C(=O)N(C)[C@@H](C)c1nc2c([nH]1)CCOc1cc(-c3ccc(-c4cnc([C@@H]5CCCN5C(=O)[C@H](NC(=O)OC)c5ccccc5)[nH]4)cc3)ccc1-2)c1ccccc1` [Example 22b.3] showed an EC50 of 0.001 to 0.1 nM. `CCN(CC)[C@@H](C(=O)N[C@@H](C)c1nc2c([nH]1)CCCc1cc(-c3ccc(-c4cnc([C@@H]5CCCN5C(=O)[C@@H](c5ccccc5)N(CC)CC)[nH]4)cc3)ccc1-2)c1ccccc1` [Example 22c.1] gave an EC50 of 0.001 to 0.1 nM. `CCN(CC)[C@@H](C(=O)N1[C@@H]2C[C@@H]2C[C@H]1c1ncc(-c2ccc(-c3ccc4c(c3)CCCc3[nH]c([C@@H]5C[C@H]6C[C@H]6N5C(=O)[C@@H](c5ccccc5)N(CC)CC)nc3-4)cc2)[nH]1)c1ccccc1` [Example 22c.3] gave an EC50 of 0.001 to 0.1 nM. `COC(=O)N[C@H](C(=O)N[C@@H](C)c1nc2c([nH]1)CCCc1cc(-c3ccc(-c4cnc([C@@H]5CCCN5C(=O)[C@@H](NC(=O)OC)C(C)C)[nH]4)cc3)ccc1-2)C(C)C` [Example 22c] was tested, and the EC50 was 0.001 to 0.1 nM. For `COC(=O)N[C@H](C(=O)N[C@@H](C)c1ncc(-c2ccc(-c3ccc4c(c3)CCCc3[nH]c([C@H](C)NC(=O)[C@@H](NC(=O)OC)C(C)C)nc3-4)cc2)[nH]1)C(C)C` [Example 22d], the EC50 was 0.001 to 0.1 nM. Molecule `COC(=O)N[C@H](C(=O)N[C@@H](C)c1ncc(-c2ccc(-c3ccc4c(c3)CCCc3[nH]c([C@@H]5CCCN5C(=O)[C@@H](NC(=O)OC)C(C)C)nc3-4)cc2)[nH]1)C(C)C` [Example 22f] has an EC50 of 0.001 to 0.1 nM. With `CCN(CC)[C@@H](C(=O)N1CCC[C@H]1c1ncc(-c2ccc(-c3ccc4c(c3)CCCc3[nH]c([C@@H]5CCCN5C(=O)[C@@H](c5ccccc5)N(CC)CC)nc3-4)cc2F)[nH]1)c1ccccc1` [Example 22g.1] the EC50 was 0.001 to 0.1 nM. Work on `COC(=O)N[C@H](C(=O)N1CCC[C@H]1c1ncc(-c2ccc(-c3ccc4c(c3)CCCc3[nH]c([C@@H]5CCCN5C(=O)[C@@H](NC(=O)OC)[C@@H](C)OC)nc3-4)cc2F)[nH]1)[C@H](C)OC` [Example 22g.3] yielded an EC50 of 0.001 to 0.1 nM. For `CCN(CC)[C@@H](C(=O)N1CC(F)(F)C[C@H]1c1ncc(-c2ccc(-c3ccc4c(c3)CCCc3[nH]c([C@@H]5CCCN5C(=O)[C@@H](c5ccccc5)N(CC)CC)nc3-4)cc2)[nH]1)c1ccccc1` [Example 22h.1], the EC50 was 0.001 to 0.1 nM. In the case of `COC(=O)N[C@H](C(=O)N1CC(F)(F)C[C@H]1c1ncc(-c2ccc(-c3ccc4c(c3)CCCc3[nH]c([C@@H]5CCCN5C(=O)[C@@H](NC(=O)OC)C(C)C)nc3-4)cc2)[nH]1)C(C)C` [Example 22h], the EC50 is reported as 0.001 to 0.1 nM. For `CCN(CC)[C@@H](C(=O)N1CCC[C@H]1c1ncc(-c2cccc(-c3ccc4c(c3)-c3nc([C@@H]5CCCN5C(=O)[C@@H](c5ccccc5)N(CC)CC)[nH]c3CCC4)c2)[nH]1)c1ccccc1` [Example 22j.1], the EC50 was 1 to 99 nM. For `CCN(CC)[C@@H](C(=O)N1CCC[C@H]1c1nc2c([nH]1)CCCc1cc(-c3ccc4c(c3)CCCc3[nH]c([C@@H]5CCCN5C(=O)[C@@H](c5ccccc5)N(CC)CC)nc3-4)ccc1-2)c1ccccc1` [Example 22k.1], the EC50 was 0.001 to 0.1 nM. In the case of `COC(=O)N[C@H](C(=O)N1CCC[C@H]1c1nc2c([nH]1)CCCc1cc(-c3ccc4c(c3)CCCc3[nH]c([C@@H]5CCCN5C(=O)[C@@H](NC(=O)OC)C(C)C)nc3-4)ccc1-2)C(C)C` [Example 22k], the EC50 is reported as 0.001 to 0.1 nM. Work on `CCN(CC)[C@@H](C(=O)N1CCC[C@H]1c1ncc(-c2ccc(-c3ccc4c(c3)CCCc3c-4nc([C@@H]4CCCN4C(=O)[C@@H](c4ccccc4)N(CC)CC)n3O)cc2)[nH]1)c1ccccc1` [Example 22n.1] yielded an EC50 of 0.001 to 0.1 nM. `COC(=O)N[C@H](C(=O)N1CCC[C@H]1c1ncc(-c2ccc(-c3ccc4c(c3)CCCc3c-4nc([C@@H]4CCCN4C(=O)[C@@H](NC(=O)OC)C(C)C)n3O)cc2)[nH]1)C(C)C` [Example 22n] was tested, and the EC50 was 0.001 to 0.1 nM. In the case of `COC(=O)N[C@H](C(=O)N1CCC[C@H]1c1ncc(-c2ccc(-c3ccc4c(c3)CCc3[nH]c([C@@H]5CCCN5C(=O)[C@@H](NC(=O)OC)C(C)C)nc3C4)cc2)[nH]1)C(C)C` [Example 22o], the EC50 is reported as 0.101 to 0.999 nM. With `CCN(CC)[C@@H](C(=O)N1CCC[C@H]1c1ncc(-c2ccc(-c3ccc4c(c3)CCCCc3c-4nc([C@@H]4CCCN4C(=O)[C@@H](c4ccccc4)N(CC)CC)n3O)cc2)[nH]1)c1ccccc1` [Example 22q.1] the EC50 was 0.001 to 0.1 nM. `COC(=O)N[C@H](C(=O)N1CCC[C@H]1c1ncc(-c2ccc(-c3ccc4c(c3)CCCCc3c-4nc([C@@H]4CCCN4C(=O)[C@@H](NC(=O)OC)C(C)C)n3O)cc2)[nH]1)C(C)C` [Example 22q] showed an EC50 of 0.001 to 0.1 nM. In the case of `COC(=O)N[C@H](C(=O)N1CCC[C@H]1c1nc2c([nH]1)CCc1cc(-c3ccc(-c4[nH]c([C@@H]5CCCN5C(=O)[C@@H](NC(=O)OC)C(C)C)nc4CCC(F)(F)F)cc3)ccc1-2)C(C)C` [Example 22r.1], the EC50 is reported as 0.001 to 0.1 nM. `COC(=O)N[C@H](C(=O)N1[C@@H]2C[C@@H]2C[C@H]1c1ncc(-c2ccc(-c3ccc4c(c3)CCc3[nH]c([C@@H]5C[C@H]6C[C@H]6N5C(=O)[C@@H](NC(=O)OC)C(C)C)nc3-4)cc2)[nH]1)C(C)C` [Example 22r.2] gave an EC50 of 0.001 to 0.1 nM. With `CCN(CC)[C@@H](C(=O)N1[C@@H]2C[C@@H]2C[C@H]1c1ncc(-c2ccc(-c3ccc4c(c3)CCc3[nH]c([C@@H]5C[C@H]6C[C@H]6N5C(=O)[C@@H](c5ccccc5)N(CC)CC)nc3-4)cc2)[nH]1)c1ccccc1` [Example 22r.2a] the EC50 was 0.001 to 0.1 nM. `COC(=O)N[C@@H](C(=O)N1[C@@H]2C[C@@H]2C[C@H]1c1ncc(-c2ccc(-c3ccc4c(c3)CCc3[nH]c([C@@H]5C[C@H]6C[C@H]6N5C(=O)[C@H](NC(=O)OC)c5ccccc5)nc3-4)cc2)[nH]1)c1ccccc1` [Example 22r.2b] was tested, and the EC50 was 0.001 to 0.1 nM.
